Test results: PMC9515468, “Tetracycline-grafted mPEG-PLGA micelles for bone-targeting and osteoporotic improvement” (Frontiers in Pharmacology, 2022)

Experiments:
[1] = test system: ovariectomized rats; experiment: Osteoporotic study in ovariectomized rats (femur micro-CT, BMD); assay type: in vivo, SD rats; details: 0.5 mg/kg/2 days intravenous; for BMD (bone mineral density) / BV/TV / SMI (structure model index) / Tb.N / Tb.Sp / Tb.Th: femur of ovariectomized rats, n = 3; for increase of femur BMD compared to the OVX group: ovariectomized rats, treatment for 8 weeks
Method: Female SD rats were adopted for the osteoporotic study. […] All SD rats were anesthetized and bilaterally ovariectomized except those in the SHAM group, which underwent a sham operation. […] All SD rats were sacrificed, and their left femurs were collected. Detection of BMD was performed with a dual energy X-ray absorptiometric machine ([…] Microtomograph, Bruker, Belgium) ([Zhang et al., 2020]).

[2] = Hydroxyapatite-targeting ability (binding to bone mineral); details: 80 mg hydroxyapatite, 37°C, within 4 h
Method: The precipitates were dissolved with 10 ml of methanol prior to 5 min of sonication and 10 min of centrifugation at 12,000 rpm. Filtration of the supernatant was accomplished with a filtering membrane (0.22 μm). The concentration of AS in the supernatant was detected by HPLC. The adsorption ability of bone targets was calculated by the following equation ([Yuan et al., 2020]): A%=Ia/I0×100% (5) where A% represents the adsorption ability of bone targets. The Ia denotes the amount of AS absorbed by hydroxyapatite. The I0 denotes the weight of AS in initial bone targets.

[3] = Pharmacokinetic parameters in the plasma; assay type: in vivo; details: SD rats, 10 mg/kg, tail vein, n = 6
Method: In-house in vitro analysis of AS was performed with a Shimadzu high performance liquid chromatography (HPLC) machine ([…], Shimadzu-Japan) equipped with an ultraviolet detector and a Purospher® RP18 column (5 μm, 4.6 × 250 mm, Merck KGaA-Germany). […] For in vivo detection, the internal standard (IS) was a baicalein (20 μg/ml) solution, wherein ethyl acetate was employed to extract AS and IS from plasma ([Zhen et al., 2020]). […] Sampling of blood from the retro-orbital veins of rats at preset time intervals was performed after they had received the aforementioned dosage forms. To obtain serum, we stored the sampled blood for 30 min at 37°C prior to centrifugation at 3,700 rpm for 10 min. The following procedure has been depicted in Section 2.7. Based on observed values, we computed Cmax as the maximum AS concentration in plasma and Tmax as the time to attain Cmax. […] Estimation of oral relative biological availability (RBA) was carried out as follows ([Zhu et al., 2021]): […]

[4] = AS release in vitro, dialysis bag method; assay type: physicochemical; details: in 48 h, PBS pH 7.4 with 0.5% Tween 80, 37 °C
Method: The experiment was conducted with an oscillating machine (ZRS-8G model, Tianjin Univ. Radio Factory, China) at a speed of 100 rpm and 37 °C. Withdrawal of dissolution medium for analysis was accordingly performed, while the same volume of fresh medium was added at preset time periods. Measurement of AS concentration for the calculation of the cumulative release ratio with HPLC was carried out. The release curve was drawn with the abscissa as time and the cumulative release ratio as the ordinate ([Weng et al., 2019]).

## CC(C)(O)[C@@H]1CC[C@](C)([C@H]2[C@@H](O)C[C@@]3(C)[C@@H]4C[C@H](O[C@@H]5O[C@H](CO)[C@@H](O)[C@H](O)[C@H]5O)[C@H]5C(C)(C)[C@@H](O[C@@H]6OC[C@@H](O)[C@H](O)[C@H]6O)CC[C@@]56C[C@@]46CC[C@]23C)O1 [AS, Astragaloside IV]
[1]; p < 0.05
  effect on osteoporosis in ovariectomized rats vs OVX group: certain mitigative effect
[1]
  BMD (bone mineral density): 0.064 ± 0.003
  BV/TV: 9.951 ± 0.100%
  SMI (structure model index): 1.847 ± 0.032
  Tb.N: 1.441 ± 0.026
  Tb.Sp: 0.60 ± 0.018
  Tb.Th: 0.076 ± 0.002 mm
  increase of femur BMD compared to the OVX group: 12.9%
[2]; containing 1 mg AS
  adsorption ability to hydroxyapatite (A%): 26.98%
[2]; containing 5 mg AS
  adsorption ability to hydroxyapatite (A%): 28.83%
[3]
  AUCt: 12912 ng·h/mL
  Cmax: 14320 ng/mL
  MRT: 82.14 min
  Tmax: 4.98 min
  t1/2: 33.5 min
[4]
  cumulative release rate: 79.05%

## C[C@]12CC[C@@H]3c4ccc(O)cc4CC[C@H]3[C@@H]1CC[C@@H]2O [ES, estradiol]
[1]
  BMD (bone mineral density): 0.093 ± 0.003
  BV/TV: 12.91 ± 0.703%
  SMI (structure model index): 1.793 ± 0.052
  Tb.N: 1.943 ± 0.063
  Tb.Sp: 0.48 ± 0.016
  Tb.Th: 0.074 ± 0.002 mm
  increase of femur BMD compared to the OVX group: 62.5%
